{
  "source": "PubChem BioAssay AID1845194",
  "about": "(Molecular Pharmacology Branch, DTP, NCI, 2023);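 further: spheroids exposed to compound for 7 days before viability readout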;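 on viability, T/C: luminescent signal taken as surrogate of viable cell content; 100% = DMSO vehicle control viability and lower means growth inhibition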",
  "test_system": "287954-098-R-J1 tumor spheroid viability",
  "experiment": "Anticancer human tumor 287954-098-R-J1 patient-derived Ewing sarcoma cell line growth inhibition",
  "conditions": "spheroids with HUVEC and MSC; for IC50: curve of first compound; for viability, T/C: stronger effect = lower value",
  "outline": "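Single agents and combinations were tested on spheroids built from tumor cells plus HUVEC and hMSC, at half-log dilutions starting at or near clinical Cmax, else 10 microM; final DMSO 0.25% (v/v).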",
  "data": [
    {"smiles": "CNCc1ccc(-c2cc(-c3nc(-c4ccc(S(=O)(=O)C(C)C)cc4)cnc3N)on2)cc1", "note": "+ COc1cc2c(cc1O)CCNC21CSC2c3c(OC(C)=O)c(C)c4c(c3C(COC1=O)N1C(O)C3Cc5cc(C)c(OC)c(O)c5C(C21)N3C)OCO4", "values": [
      {"measurement": "IC50", "setting": "second compound 30 pM", "result": 516, "unit": "nM"},
      {"measurement": "IC50", "setting": "second compound 94.9 pM", "result": 207, "unit": "nM"},
      {"measurement": "IC50", "setting": "second compound 0.0003 µM", "result": 154, "unit": "nM"},
      {"measurement": "IC50", "setting": "second compound 0.000949 µM", "result": "< 9.49", "unit": "nM"},
      {"measurement": "IC50", "setting": "second compound 0.003 µM", "result": "< 9.49", "unit": "nM"},
      {"measurement": "viability, T/C", "setting": "second compound 30 pM, first compound 0.00949 µM", "result": 109, "unit": "%"},
      {"measurement": "viability, T/C", "setting": "second compound 30 pM, first compound 0.03 µM", "result": 108, "unit": "%"},
      {"measurement": "viability, T/C", "setting": "second compound 30 pM, first compound 0.0949 µM", "result": 110, "unit": "%"},
      {"measurement": "viability, T/C", "setting": "second compound 30 pM, first compound 0.3 µM", "result": 94.5, "unit": "%"},
      {"measurement": "viability, T/C", "setting": "second compound 30 pM, first compound 0.949 µM", "result": 0.18, "unit": "%"},
      {"measurement": "viability, T/C", "setting": "second compound 30 pM, first compound 3 µM", "result": 0.12, "unit": "%"},
      {"measurement": "viability, T/C", "setting": "second compound 94.9 pM, first compound 0.00949 µM", "result": 111, "unit": "%"},
      {"measurement": "viability, T/C", "setting": "second compound 94.9 pM, first compound 0.03 µM", "result": 106, "unit": "%"},
      {"measurement": "viability, T/C", "setting": "second compound 94.9 pM, first compound 0.0949 µM", "result": 113, "unit": "%"},
      {"measurement": "viability, T/C", "setting": "second compound 94.9 pM, first compound 0.3 µM", "result": 21.7, "unit": "%"},
      {"measurement": "viability, T/C", "setting": "second compound 94.9 pM, first compound 0.949 µM", "result": 0.11, "unit": "%"},
      {"measurement": "viability, T/C", "setting": "second compound 94.9 pM, first compound 3 µM", "result": 0.14, "unit": "%"},
      {"measurement": "viability, T/C", "setting": "second compound 0.0003 µM, first compound 0.00949 µM", "result": 110, "unit": "%"},
      {"measurement": "viability, T/C", "setting": "second compound 0.0003 µM, first compound 0.03 µM", "result": 115, "unit": "%"},
      {"measurement": "viability, T/C", "setting": "second compound 0.0003 µM, first compound 0.0949 µM", "result": 85.7, "unit": "%"},
      {"measurement": "viability, T/C", "setting": "second compound 0.0003 µM, first compound 0.3 µM", "result": 0.62, "unit": "%"},
      {"measurement": "viability, T/C", "setting": "second compound 0.0003 µM, first compound 0.949 µM", "result": 0.04, "unit": "%"},
      {"measurement": "viability, T/C", "setting": "second compound 0.0003 µM, first compound 3 µM", "result": 0.13, "unit": "%"},
      {"measurement": "viability, T/C", "setting": "second compound 0.000949 µM, first compound 0.00949 µM", "result": 0.42, "unit": "%"},
      {"measurement": "viability, T/C", "setting": "second compound 0.000949 µM, first compound 0.03 µM", "result": 0.41, "unit": "%"},
      {"measurement": "viability, T/C", "setting": "second compound 0.000949 µM, first compound 0.0949 µM", "result": 0.26, "unit": "%"},
      {"measurement": "viability, T/C", "setting": "second compound 0.000949 µM, first compound 0.3 µM", "result": 0.07, "unit": "%"},
      {"measurement": "viability, T/C", "setting": "second compound 0.000949 µM, first compound 0.949 µM", "result": 0.03, "unit": "%"},
      {"measurement": "viability, T/C", "setting": "second compound 0.000949 µM, first compound 3 µM", "result": 0.14, "unit": "%"},
      {"measurement": "viability, T/C", "setting": "second compound 0.003 µM, first compound 0.00949 µM", "result": 0.21, "unit": "%"},
      {"measurement": "viability, T/C", "setting": "second compound 0.003 µM, first compound 0.03 µM", "result": 0.22, "unit": "%"},
      {"measurement": "viability, T/C", "setting": "second compound 0.003 µM, first compound 0.0949 µM", "result": 0.18, "unit": "%"},
      {"measurement": "viability, T/C", "setting": "second compound 0.003 µM, first compound 0.3 µM", "result": 0.17, "unit": "%"},
      {"measurement": "viability, T/C", "setting": "second compound 0.003 µM, first compound 0.949 µM", "result": 0.16, "unit": "%"},
      {"measurement": "viability, T/C", "setting": "second compound 0.003 µM, first compound 3 µM", "result": 0.24, "unit": "%"}
    ]},
    {"smiles": "[2H]c1nc(C)nc([2H])c1-c1cc(NC[C@@H](C)c2cccc3c(C(=O)NC)ccnc23)ncn1", "note": "+ CC[C@@]1(O)C(=O)OCc2c1cc1n(c2=O)Cc2cc3c(CN(C)C)c(O)ccc3nc2-1", "values": [
      {"measurement": "IC50", "setting": "second compound 0.003 µM", "result": "> 10000", "unit": "nM"},
      {"measurement": "IC50", "setting": "second compound 0.00949 µM", "result": "> 10000", "unit": "nM"},
      {"measurement": "IC50", "setting": "second compound 0.03 µM", "result": "< 31.6", "unit": "nM"},
      {"measurement": "IC50", "setting": "second compound 0.0949 µM", "result": "< 31.6", "unit": "nM"},
      {"measurement": "IC50", "setting": "second compound 0.3 µM", "result": "< 31.6", "unit": "nM"},
      {"measurement": "viability, T/C", "setting": "second compound 0.003 µM, first compound 0.0316 µM", "result": 101, "unit": "%"},
      {"measurement": "viability, T/C", "setting": "second compound 0.003 µM, first compound 0.1 µM", "result": 109, "unit": "%"},
      {"measurement": "viability, T/C", "setting": "second compound 0.003 µM, first compound 0.316 µM", "result": 111, "unit": "%"},
      {"measurement": "viability, T/C", "setting": "second compound 0.003 µM, first compound 1 µM", "result": 107, "unit": "%"},
      {"measurement": "viability, T/C", "setting": "second compound 0.003 µM, first compound 3.16 µM", "result": 96.2, "unit": "%"},
      {"measurement": "viability, T/C", "setting": "second compound 0.003 µM, first compound 10 µM", "result": 105, "unit": "%"},
      {"measurement": "viability, T/C", "setting": "second compound 0.00949 µM, first compound 0.0316 µM", "result": 104, "unit": "%"},
      {"measurement": "viability, T/C", "setting": "second compound 0.00949 µM, first compound 0.1 µM", "result": 108, "unit": "%"},
      {"measurement": "viability, T/C", "setting": "second compound 0.00949 µM, first compound 0.316 µM", "result": 99.1, "unit": "%"},
      {"measurement": "viability, T/C", "setting": "second compound 0.00949 µM, first compound 1 µM", "result": 106, "unit": "%"},
      {"measurement": "viability, T/C", "setting": "second compound 0.00949 µM, first compound 3.16 µM", "result": 110, "unit": "%"},
      {"measurement": "viability, T/C", "setting": "second compound 0.00949 µM, first compound 10 µM", "result": 109, "unit": "%"},
      {"measurement": "viability, T/C", "setting": "second compound 0.03 µM, first compound 0.0316 µM", "result": 32, "unit": "%"},
      {"measurement": "viability, T/C", "setting": "second compound 0.03 µM, first compound 0.1 µM", "result": 31.6, "unit": "%"},
      {"measurement": "viability, T/C", "setting": "second compound 0.03 µM, first compound 0.316 µM", "result": 47.8, "unit": "%"},
      {"measurement": "viability, T/C", "setting": "second compound 0.03 µM, first compound 1 µM", "result": 10.1, "unit": "%"},
      {"measurement": "viability, T/C", "setting": "second compound 0.03 µM, first compound 3.16 µM", "result": 15.7, "unit": "%"},
      {"measurement": "viability, T/C", "setting": "second compound 0.03 µM, first compound 10 µM", "result": 4.42, "unit": "%"},
      {"measurement": "viability, T/C", "setting": "second compound 0.0949 µM, first compound 0.0316 µM", "result": 1.07, "unit": "%"},
      {"measurement": "viability, T/C", "setting": "second compound 0.0949 µM, first compound 0.1 µM", "result": 0.66, "unit": "%"},
      {"measurement": "viability, T/C", "setting": "second compound 0.0949 µM, first compound 0.316 µM", "result": 0.37, "unit": "%"},
      {"measurement": "viability, T/C", "setting": "second compound 0.0949 µM, first compound 1 µM", "result": 0.51, "unit": "%"},
      {"measurement": "viability, T/C", "setting": "second compound 0.0949 µM, first compound 3.16 µM", "result": 0.49, "unit": "%"},
      {"measurement": "viability, T/C", "setting": "second compound 0.0949 µM, first compound 10 µM", "result": 0.51, "unit": "%"},
      {"measurement": "viability, T/C", "setting": "second compound 0.3 µM, first compound 0.0316 µM", "result": 0.91, "unit": "%"},
      {"measurement": "viability, T/C", "setting": "second compound 0.3 µM, first compound 0.1 µM", "result": 0.5, "unit": "%"},
      {"measurement": "viability, T/C", "setting": "second compound 0.3 µM, first compound 0.316 µM", "result": 0.31, "unit": "%"},
      {"measurement": "viability, T/C", "setting": "second compound 0.3 µM, first compound 1 µM", "result": 0.64, "unit": "%"},
      {"measurement": "viability, T/C", "setting": "second compound 0.3 µM, first compound 3.16 µM", "result": 0.57, "unit": "%"},
      {"measurement": "viability, T/C", "setting": "second compound 0.3 µM, first compound 10 µM", "result": 0.57, "unit": "%"}
    ]}
  ]
}
